# Experimental data as given in patent US11401516B2, “Channel modulators” (AUCKLAND UNISERVICES LIMITED, priority 2014, dated 2022).
# Experiments:
# Connexin43 hemichannel = biological target: T1, Connexin43 hemichannel (Homo sapiens, UniProt P17302); assay: Whole-cell voltage clamp, Connexin43 transfected HeLa cells; assay type: cell-based; details: voltage steps; peptide5 100 μM; carbenoxolone and LaCl3 concentration not stated
# T1 construct: expressed in transfected cells; host or cells: HeLa (connexin-deficient parent), Cx43IRESeGFP, puromycin selection
# T1 sequence (P17302 2-382 limits assumed): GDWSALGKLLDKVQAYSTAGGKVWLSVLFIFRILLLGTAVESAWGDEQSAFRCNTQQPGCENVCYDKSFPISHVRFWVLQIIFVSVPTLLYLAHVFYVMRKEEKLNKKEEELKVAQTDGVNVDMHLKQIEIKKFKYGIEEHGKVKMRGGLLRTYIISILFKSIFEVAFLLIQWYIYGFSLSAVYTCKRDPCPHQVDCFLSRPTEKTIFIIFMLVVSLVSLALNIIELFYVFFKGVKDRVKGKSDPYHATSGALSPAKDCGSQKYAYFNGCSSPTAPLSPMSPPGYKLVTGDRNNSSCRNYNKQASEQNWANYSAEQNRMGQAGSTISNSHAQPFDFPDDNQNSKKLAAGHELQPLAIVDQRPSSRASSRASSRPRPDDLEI
# Experimental: Whole-cell voltage clamp studies were conducted on connexin deficient HeLa cells, Connexin43 transfected HeLa cells and isolated human cerebral microvascular endothelial cells (hCMVEC).
# HeLa cells were seeded at 0.045×10^6 cells/mL on 18 mm rat collagen I coated coverslips 16-24 hours before each experiment. Cx43IRESeGFP HeLa cells were cultured overnight in DMEM supplemented with 10% FCS and 1 μg/mL Puromycin at 37° C. at 95% O2 and 5% CO2. Control Cx-deficient cells were maintained in DMEM supplmented with 10% FCS. Coverslips were transferred to a chamber continuously perfused with modified Krebs-Ringer solution containing (in mM): 140 NaCl, 5.4 KCl, 1 MgCl2, 10 mM Hepes and pH adjusted to 7.4 at room temperature. The internal pipette solution contained (in mM): 130 KCl, 10 sodium aspartate, 0.26 CaCl2, 2 EGTA, 5 tetraethylammonium-Cl, 1 MgCl, 3 MgATP, and 5 Hepes at pH 7.2; and was kept on ice. The solutions are described in Contreras J E, et al., Cell Communication and Adhesion (2003), 10:245-249. To resolve single currents in whole-cell configuration, cells with low capacitance (<10 pF) and high resistance pipettes ([…]) with a seal resistance of (>5 GOhm) were selected for recording and analysis.
# HUVEC cells = assay: Transfection uptake of FAM-labelled oligonucleotides (FACS); assay type: cell-based, Human; details: 200 nM
# Experimental: HUVEC cells (C-003-5C, Invitrogen, primary Human endothelial cells) were used to test the transfection of chemically modified backbones of the Connexin 43 antisense compounds. Cells were transfected with Oligofectamine® using the manufacturer's recommended protocol for 4 hr and 12 hr in serum-free media. The antisense concentration was 200 nM in buffer. The antisense compounds used had unmodified (O) or fully modified (PTO) backbones, where the modified backbone had all thiophosphoriate linkages between the nucleotides. The unmodified sequence SEQ1-O would have the sequence […] NO: 23). The modified sequence SEQ1-PTO would have the sequence of: [NT] NO: 23), wherein the subscript “s” indicates the thiophosphoriate linkage between the two nucleotides. […] All sequences for the transfection study were labelled with FAM for fluorescence labelling. The transfected cells were analyzed by FACS (fluorescent-activated cell sorting), and confocal microscopy.
# Connexin 43 = Connexin 43 knockdown by Western blot in HUVEC; assay type: cell-based, human; details: phosphorothioate backbone ASN
# Experimental: (§1) Cells were grown in 6-well culture plates for 24 hr and reached 50-70% confluence prior to antisense oligonucleotide treatments using the transfection agent Oligofectamine®. Cells were harvested for qPCR and Western blotting analysis between 4 and 24 hr after transfection.
# Western blotting was also performed to determine the efficacy of antisense oligonucleotide in knockdown of the target protein. Briefly, total proteins were extracted from the cells after transfection and the concentration was determined by performing bicinchoninic acid (BCA) assay. Subsequently, equal amounts of total protein were loaded for gel electrophoresis and blotted onto nitrocellulose membranes, which were then probed with a specific antibody against the target protein. Densitometry was used to quantify the band intensity of the target protein. Knockdown was quantified by comparing antisense oligonucleotide versus vehicle treatments.
# (§2) The cell screening experiments were performed using HUVEC cells (human umbilical vein endothelial cells; Invitrogen), with two biological replicates in each experiment. The identifiers of “CODA” are SEQ1, and “LP2” are SEQ4.
# Connexin 43 RNA = assay: Connexin 43 knockdown by qPCR in HUVEC; assay type: cell-based, human; details: for Avg % KD qPCR: HUVEC, phosphorothioate backbone ASN; for Absolute Difference from SEQ1 (relative knockdown): all-thiophosphoriate linkages in the entire backbone; for dose response of Cxn43 knockdown, qPCR: 200-600 nM
# Experimental: Next, the knockdown efficiency of Connexin 43 in HUVEC cells was measured by qPCR for an oligonucleotide series with the same sequence but with a different number of PTO-modifications on the oligonucleotide backbone. The sequences tested were SEQ1 and SEQ4, with none, 2, or all phosphorthioate linkages in the backbone. For the sequences with two phosphorthioate linkages in the backbone, the phosphorthioate linkages were between the last nucleotide linkages at the terminus of each side of the sequence. The sequences are Gs[…]sT (SEQ ID NO: 23) and As[…]sC (SEQ ID NO: 5) for SEQ1-2PTO and SEQ4-2PTO, respectively. […]
# as §1
# qPCR was performed to determine the efficacy of antisense oligonucleotide in knockdown of the target RNA. Briefly, total RNA was extracted from the cells after transfection. The isolated RNA was DNAse-treated and reverse-transcribed into cDNA. The cDNA subsequently underwent qPCR thermal cycling. The Ct values (the number of cycles required for the fluorescent intensity to cross the set threshold) obtained from the qPCR were converted into relative abundance of RNA. The RNA level of the target was normalised to selected reference genes and compared between antisense oligonucleotide versus vehicle treatments.
# as §2
# [1] = cited from earlier work; for incidence of new geographic atrophy: treated monthly, average 23 injections over two years
# [2] = Table 66, 4 hr post-transfection
# [3] = Table 67, 4 hr post-transfection
# [4] = unmodified sequences (no phosphorthioate linkages)
compound,measurement,setting,value
[Cl][La]([Cl])[Cl] [LaCl3],Connexin43 hemichannel activity,Connexin43 hemichannel,virtually complete hemichannel block
ACCCATGTTGCCTGGGCACC (chemistry not fully specified) [SEQ4-Q],"% transfected, M2",HUVEC cells; [2],64%
same,"% transfected, M3",HUVEC cells; [2],34%
same,"% transfected, M4",HUVEC cells; [2],1%
same,"% transfected, Total",HUVEC cells; [2],99%
same,"% transfected, M2",HUVEC cells; [3],55%
same,"% transfected, M3",HUVEC cells; [3],41%
same,"% transfected, M4",HUVEC cells; [3],2%
same,"% transfected, Total",HUVEC cells; [3],99%
AGGCTGTGCATGGGAGTTAG (chemistry not given here) [SEQ7/1233],Avg % KD WB,Connexin 43,75%
same,Avg % KD qPCR,Connexin 43 RNA,82%
same,Absolute Difference from SEQ1 (relative knockdown),Connexin 43 RNA,17
ATATGATCTGCAGGACCCAG (chemistry not given here) [SEQ9/50506],Avg % KD WB,Connexin 43,73%
same,Avg % KD qPCR,Connexin 43 RNA,79%
same,Absolute Difference from SEQ1 (relative knockdown),Connexin 43 RNA,14
AsCsCsCsAsTsGsTsTsGsCsCsTsGsGsGsCsAsCsC (ACCCATGTTGCCTGGGCACC; chemistry not fully specified) [SEQ4-PTO],"% transfected, M2",HUVEC cells; [2],9%
same,"% transfected, M3",HUVEC cells; [2],44%
same,"% transfected, M4",HUVEC cells; [2],48%
same,"% transfected, Total",HUVEC cells; [2],100%
same,"% transfected, M2",HUVEC cells; [3],9%
same,"% transfected, M3",HUVEC cells; [3],44%
same,"% transfected, M4",HUVEC cells; [3],47%
same,"% transfected, Total",HUVEC cells; [3],99%
Avastin: VEGF antagonist antibody,incidence of new geographic atrophy,[1],19.5%
CAGAAGCGCACATGAGAGAT (chemistry not given here) [SEQ8/47001],Avg % KD WB,Connexin 43,75%
same,Avg % KD qPCR,Connexin 43 RNA,81%
same,Absolute Difference from SEQ1 (relative knockdown),Connexin 43 RNA,15
CCAGGCTGACTCAACCGCTG (chemistry not given here) [SEQ4/37501],Avg % KD WB,Connexin 43,82%
same,Avg % KD qPCR,Connexin 43 RNA,87%
same,Absolute Difference from SEQ1 (relative knockdown),Connexin 43 RNA,22
same,"dose response of Cxn43 knockdown, qPCR",Connexin 43 RNA; [4],exhibited a dose response
CGCTGGTCCACAATGGCTAG (chemistry not given here) [SEQ6/133705],Avg % KD WB,Connexin 43,75%
same,Avg % KD qPCR,Connexin 43 RNA,83%
same,Absolute Difference from SEQ1 (relative knockdown),Connexin 43 RNA,18
same,"dose response of Cxn43 knockdown, qPCR",Connexin 43 RNA; [4],exhibited a dose response
GAAGCGCACATGAGAGATTG (chemistry not given here) [SEQ11],Absolute Difference from SEQ1 (relative knockdown),Connexin 43 RNA,20
GCTGGCTCTGCTTGAAGGTC (chemistry not given here) [SEQ 5/133705],Avg % KD WB,Connexin 43,75%
same,Avg % KD qPCR,Connexin 43 RNA,84%
same,Absolute Difference from SEQ1 (relative knockdown),Connexin 43 RNA,19
"GTAATTGCGGCAAGAAGAATTGTTTCTGT (DNA, phosphodiester; FAM fluorescent label attached, position not given here) [SEQ1-O]","% transfected, M2",HUVEC cells; [2],56%
same,"% transfected, M3",HUVEC cells; [2],42%
same,"% transfected, M4",HUVEC cells; [2],2%
same,"% transfected, Total",HUVEC cells; [2],99%
same,"% transfected, M2",HUVEC cells; [3],56%
same,"% transfected, M3",HUVEC cells; [3],40%
same,"% transfected, M4",HUVEC cells; [3],2%
same,"% transfected, Total",HUVEC cells; [3],98%
GTAATTGCGGCAAGAAGAATTGTTTCTGTC (chemistry not given here) [SEQ1],"knockdown effect on Cxn43, qPCR","Connexin 43 RNA; unmodified sequences (no phosphorthioate linkages), 4 hr, all concentrations (200-600 nM)",≤ 10%
GsTsAsAsTsTsGsCsGsGsCsAsAsGsAsAsGsAsAsTsTsGsTsTsTsCsTsGsT (GTAATTGCGGCAAGAAGAATTGTTTCTGT; chemistry not fully specified) [SEQ1-PTO],"% transfected, M2",HUVEC cells; [2],26%
same,"% transfected, M3",HUVEC cells; [2],63%
same,"% transfected, M4",HUVEC cells; [2],11%
same,"% transfected, Total",HUVEC cells; [2],100%
same,"% transfected, M2",HUVEC cells; [3],15%
same,"% transfected, M3",HUVEC cells; [3],49%
same,"% transfected, M4",HUVEC cells; [3],35%
same,"% transfected, Total",HUVEC cells; [3],100%
Lucentis: VEGF antagonist antibody,new geographic atrophy,[1]; treated as needed,16%
same,incidence of new geographic atrophy,[1],29.4%
TCTCCCCAGGCTGACTCAAC (chemistry not given here) [SEQ10/37503],Avg % KD WB,Connexin 43,75%
same,Avg % KD qPCR,Connexin 43 RNA,77%
same,Absolute Difference from SEQ1 (relative knockdown),Connexin 43 RNA,12
